Laboratory results reported in patent US11945807B2, “Splicing modulator antibody-drug conjugates and methods of use” (EISAI R&D MANAGEMENT CO., LTD., priority 2018, dated 2024).
Read-outs that look alike come from different tables or passages of the source.

Tests used:
[1] = tested on: FBXW5 (mature mRNA transcript); experiment: In vivo PD RT-qPCR in NCI-N87 tumors, FBXW5; set-up: species or system CB17-SCID mice; details: single IV 10 mg/kg; N=4; FIG. 24
[2] = tested on: TAOK1 (neojunction transcript); experiment: In vivo PD RT-qPCR in NCI-N87 tumors, TAOK1; set-up: species or system CB17-SCID mice; details: single IV 10 mg/kg; N=4; FIG. 24
[3] = tested on: Ad2.1 pre-mRNA; experiment: In vitro splicing (IVS) RT-qPCR, HeLa nuclear extract, Ad2.1; format: biochemical
Method: (§1) To evaluate payload activity in a cell-free system, an in vitro splicing assay was performed. The payloads were incubated with nuclear extracts and pre-mRNA substrate minigenes.
(§2) HeLa nuclear extract preparation: HeLa S3 cell pellets were resuspended in hypotonic buffer (10 mM HEPES pH 7.9, 1.5 mM MgCl2, 10 mM KCl, 0.2 mM PMSF, 0.5 mM DTT) and the suspension was brought up to a total of 5 packed cell volume (PCV). After centrifugation, the supernatant was discarded, and the cells were brought up to 3 PCV with hypotonic buffer and incubated on ice for 10 min. Cells were lysed using a dounce homogenizer and then centrifuged. […]. The nuclei were gently mixed for 30 min before centrifuging. The supernatant (nuclear extract) was then dialyzed into storage buffer (20 mM HEPES pH 7.9, 100 mM KCl, 0.2 mM EDTA, 20% glycerol, 0.2 mM PMSF, 0.5 mM DTT). Protein concentration was determined using NanoDrop 8000 UV-Vis spectrophotometer (ThermoFisher Scientific).
IVS: All Ad2-derived sequences (Pellizzoni et al. (1998) Cell 95(5):615-24) were cloned into pcDNA3.1(+) vector (Promega) using 5′ EcoRI and 3′ Xbal restriction sites. The plasmids were linearized using Xbal and used as DNA templates in in vitro transcription reactions. The FtzΔi intron-less plasmid (Luo and Reed (1999) 96(26):14937-42) was linearized using EcoRI. All RNAs were in vitro transcribed and then purified using MEGAScript T7 (Invitrogen) and MegaClear (Invitrogen) kits, respectively. For splicing reactions using Ad2 variant pre-mRNAs, 1 μL reactions were prepared using 8 μg nuclear extracts prepared from HeLa S3, 2 ng pre-mRNA, 0.2 ng FTZΔi, and varying concentrations of compounds or DMSO. After a 15 min pre-incubation at 30° C., 1 μL splicing activation buffer (0.5 mM ATP, 20 mM creatine phosphate, 1.6 mM MgCl2) was added, and the reactions were incubated for 90 min at 30° C. The reactions were then quenched with 13 μL DMSO, and 25 nL was used for RT-qPCR. […]

[4] = tested on: Ad2.2 pre-mRNA; experiment: In vitro splicing (IVS) RT-qPCR, HeLa nuclear extract, Ad2.2; format: biochemical
Method: as §1, §2
IVS: All Ad2-derived sequences (Pellizzoni et al. (1998) Cell 95(5):615-24) were cloned into pcDNA3.1(+) vector (Promega) using 5′ EcoRI and 3′ Xbal restriction sites. The plasmids were linearized using Xbal and used as DNA templates in in vitro transcription reactions. The FtzΔi intron-less plasmid (Luo and Reed (1999) 96(26):14937-42) was linearized using EcoRI. All RNAs were in vitro transcribed and then purified using MEGAScript T7 (Invitrogen) and MegaClear (Invitrogen) kits, respectively. For splicing reactions using Ad2 variant pre-mRNAs, 1 μL reactions were prepared using 8 μg nuclear extracts prepared from HeLa S3, 2 ng pre-mRNA, 0.2 ng FTZΔi, and varying concentrations of compounds or DMSO. After a 15 min pre-incubation at 30° C., 1 μL splicing activation buffer (0.5 mM ATP, 20 mM creatine phosphate, 1.6 mM MgCl2) was added, and the reactions were incubated for 90 min at 30° C. The reactions were then quenched with 13 μL DMSO, and 25 nL was used for RT-qPCR. RT-qPCR reactions were prepared using TaqMan RNA-to-CT 1-step kit (Life Technologies), RNA from splicing reactions, Ad2 (forward: […]; reverse: […]; probe: […]) and Ftz (forward: […]; reverse: […]; probe: […]) mRNA primer-probe sets. Prism 7 (Graphpad) was used for non-linear regression curve fitting of the formed spliced product and normalized to the control (DMSO) sample. […] In the presence of payload, a decrease in the amount of spliced product was observed.

[5] = tested on: THP1.1; experiment: Payload cell potency and lethality CTGlo 72 h, THP1.1; format: cell-based; details: cell line #3, 72 h, corresponding free payload
[6] = Caco-2 permeability of ADC payload; format: in vitro ADME; details: human, corresponding free payload
[7] = tested on: NCIH1650.1; experiment: Payload cellular potency CTGlo-ATS 72 h, NCIH1650.1; format: cell-based; details: cell line #1, 72 h, corresponding free payload
[8] = tested on: NCIH1568.1; experiment: Payload cellular potency CTGlo-ATS 72 h, NCIH1568.1; format: cell-based; details: cell line #2, 72 h, corresponding free payload
[9] = tested on: Caco-2 cells; experiment: Caco-2 permeability of ADC payload; format: in vitro ADME; details: unconjugated payload; apical to basolateral, 2 hours

## CC[C@H](O)[C@@H](C)C1OC1C[C@@](C)(O)/C=C/C=C(\C)[C@H]1OC(=O)C[C@H](O)CC[C@@](C)(OC)[C@@H](OC(=O)N2CCN(CCN3C(=O)C=CC3=O)CC2)/C=C/[C@@H]1C (stereo in doubt) [ADL14-D1, (2S,3S,6S,7R,10R,E)-10-hydroxy-2-((R,2E,4E)-6-hydroxy-7-((2S,3S)-3-((2R,3S)-3-hydroxypentan-2-yl)oxiran-2-yl)-6-methylhepta-2,4-dien-2-yl)-7-methoxy-3,7-dimethyl-12-oxooxacyclododec-4-en-6-yl 4-(2-(2,5-dioxo-2,5-dihydro-1H-pyrrol-1-yl)ethyl)piperazine-1-carboxylate]
[1]
  change of FBXW5 mature mRNA transcript in tumor: did not exhibit statistically significant changes
[2]
  change of TAOK1 neojunction transcript in tumor: did not exhibit statistically significant changes

## CC[C@H](O)[C@@H](C)[C@H]1O[C@@H]1C[C@@](C)(O)/C=C/C=C(\C)[C@H]1OC(=O)C[C@H](O)CC[C@@](C)(OC(C)=O)[C@@H](OC(=O)N2CCN(C(=O)OCc3ccc(NC(=O)[C@H](CCCNC(N)=O)NC(=O)[C@@H](NC(=O)CCCCCN4C(=O)C=CC4=O)C(C)C)cc3)CC2)/C=C/[C@@H]1C [ADL1-D4]
[1]
  change of FBXW5 mature mRNA transcript in tumor: significant depletion
[2]
  change of TAOK1 neojunction transcript in tumor: significant increases

## CC(=O)N1CCC(n2nnc3c(F)cc(/C=C(\C)[C@H]4OC(=O)C[C@H](O)CC[C@H](C)[C@@H](OC(=O)N5CC[N+](C)(Cc6ccc(NC(=O)[C@H](C)NC(=O)[C@@H](NC(=O)CCCCCN7C(=O)C=CC7=O)C(C)C)cc6)CC5)/C=C/[C@@H]4C)cc32)CC1 [ADL5-D15, 4-((((2S,3S,6R,7S,10R,E)-2-((E)-1-(1-(1-acetylpiperidin-4-yl)-4-fluoro-1H-benzo[d][1,2,3]triazol-6-yl)prop-1-en-2-yl)-10-hydroxy-3,7-dimethyl-12-oxooxacyclododec-4-en-6-yl)oxy)carbonyl)-1-(4-((S)-2-((S)-2-(6-(2,5-dioxo-2,5-dihydro-1H-pyrrol-1-yl)hexanamido)-3-methylbutanamido)propanamido)benzyl)-1-methylpiperazin-1-ium]
[1]
  change of FBXW5 mature mRNA transcript in tumor: significant depletion
[2]
  change of TAOK1 neojunction transcript in tumor: an increase in TAOK1, but did not reach statistical significance

## CC[C@H](O)[C@@H](C)[C@H]1O[C@@H]1C[C@@](C)(O)/C=C/C=C(\C)[C@H]1OC(=O)C[C@H](O)CC[C@@](C)(O)[C@@H](OC(=O)N2CCNCC2)/C=C/[C@@H]1C [D12, (2S,3S,6S,7R,10R,E)-7,10-dihydroxy-2-((R,2E,4E)-6-hydroxy-7-((2R,3R)-3-((2R,3S)-3-hydroxypentan-2-yl)oxiran-2-yl)-6-methylhepta-2,4-dien-2-yl)-3,7-dimethyl-12-oxooxacyclododec-4-en-6-yl piperazine-1-carboxylate]
[3]; biochemical splicing assay, corresponding free payload, read-out: qPCR-IVS-ATS GMean IC50 (nM) Ad2.1 HELA.2
  IC50: 16.5 nM
[3]; ratio of IVS IC50 Ad2.1/Ad2.2, corresponding free payload
  Ratio Ad2.1/2.2: 0.659
[4]; biochemical splicing assay, corresponding free payload, read-out: qPCR-IVS-ATS GMean IC50 (nM) Ad2.2 HELA.2
  IC50: 25.1 nM
[5]
  CTGlo-ATS GMean LD50 (nM) 72 h THP1.1: 900.227 nM
[5]; read-out: CTGlo-ATS GMean GI50 (nM) 72 h THP1.1
  GI50: 202 nM
[6]; Caco-2, A-B, read-out: Perm. Mean Caco 2 A-B Perm (10e−6 cm/s)
  Papp A→B at 2 h, 10 NM: 0.17 ×10⁻⁶ cm/s
[6]; Caco-2, B-A, read-out: Perm. Mean Caco 2 B-A Perm (10e−6 cm/s)
  Papp B→A at 2 h, 10 NM: 0.23 ×10⁻⁶ cm/s
[6]; Caco-2 efflux ratio, read-out: ER
  efflux ratio at 2 h, 10 NM: 1.35
[7]
  CTGlo-ATS GMean LD50 (nM) 72 h NCIH1650.1: >10000.00 nM
[7]; read-out: CTGlo-ATS GMean GI50 (nM) 72 h NCIH1650.1
  GI50: 258 nM
[8]
  CTGlo-ATS GMean LD50 (nM) 72 h NCIH1568.1: 1193.037 nM
[8]; read-out: CTGlo-ATS GMean GI50 (nM) 72 h NCIH1568.1
  GI50: 164 nM

## COc1cc2cc(c1Cl)N(C)C(=O)C[C@H](OC(=O)[C@H](C)N(C)C(=O)CCS)[C@]1(C)O[C@H]1[C@H](C)[C@@H]1C[C@@](O)(NC(=O)O1)[C@H](OC)/C=C/C=C(\C)C2 [DM1, reference compound]
[3]; unconjugated payload, HeLa nuclear extract, read-out: qPCR-IVS-AT S Gmean IC50 (nm) Ad2.1 HELA.2
  IC50: > 25000 nM
[4]; unconjugated payload, HeLa nuclear extract, read-out: qPCR-IVS-AT S GMean IC50 (nM) Ad2.2 HELA.2
  IC50: < 25000 nM
[9]
  Permeability Mean Caco-2 A-B Perm (10e−6 cm/s): 0.38 10e−6 cm/s
